Test results: publication PMC12460146, “Impact of metabolic enzyme activity variability on dabrafenib disposition” (Frontiers in Pharmacology, 2025)
Counter-ions that a name gives are not always drawn.

test system: rat liver microsomes (RLM); assay: Drug interaction screening of 48 drugs on dabrafenib metabolism in RLM; type: in vitro ADME; details: 100 µM
Method: The 200 µL incubation system contained 0.1 M Tris-HCl (pH = 7.6), 0.5 mg/mL RLM or HLM, 1 mM NADPH, and dabrafenib. After pre-incubation (37 °C, 5 min), reactions were initiated by adding 1 mM NADPH and terminated after 40 min with 300 µL ice-cold acetonitrile. Carbamazepine (100 ng/mL) was added as the IS. Samples were vortex-mixed (2 min), centrifuged (17,000 × g, 10 min, 4 °C), and supernatants analyzed by UPLC-MS/MS. Hydroxy-dabrafenib concentrations were quantified via UPLC-MS/MS. Reaction velocity (V) was calculated as hydroxy-dabrafenib formation rate (pmoL/min/µg protein).
For drug interaction screening, inhibitors (100 µM final concentration) were screened in the standard incubation system.
The concentrations of dabrafenib and hydroxy-dabrafenib were quantified by UPLC-MS/MS. Chromatographic separation was performed on a Waters Acquity UPLC BEH C18 column (2.1 mm × 50 mm, 1.7 µm particle size) maintained at 40 °C. […] Total run time was 2 min. Detection employed a Waters Xevo TQS triple quadrupole mass spectrometer (Milford, MA, United States) operated in positive-ion multiple reaction monitoring mode.

Molecule | Relative activity (% of control)
CNCC[C@H](Oc1cccc2ccccc12)c1cccs1 [Duloxetine] | 40.82% ± 0.01
Troagliptin succinate | 117.88% ± 0.02

same assay, conditions: RLM; inhibitor 100 µM; dabrafenib at RLM Km concentration

Molecule | inhibition of dabrafenib metabolism
Cc1ccc(Sc2ccccc2N2CCNCC2)c(C)c1 [Vortioxetine] | > 70%
O=c1ccc2ccc(OCCCCN3CCN(c4cccc5sccc45)CC3)cc2[nH]1 [Brexpiprazole] | > 70%
CCCCc1oc2ccc(NS(C)(=O)=O)cc2c1C(=O)c1ccc(OCCCN(CCCC)CCCC)cc1 [Dronedarone hydrochloride] | > 70%
CNCCC(Oc1ccc(C(F)(F)F)cc1)c1ccccc1 (centres unmarked) [Fluoxetine] | > 70%
Cc1c(OCC(F)(F)F)ccnc1C[S+]([O-])c1nc2ccccc2[nH]1 (centres unmarked) [Lansoprazole] | > 70%

same assay, conditions: RLM; inhibitor 100 µM; dabrafenib at RLM Km concentration; hydroxy-dabrafenib formation

Molecule | Relative activity (% of control)
O=c1n(CCCN2CCN(c3cccc(Cl)c3)CC2)nc2ccccn12 [Trazodone] | 49.14% ± 0.01
O=C(O)Cc1ccccc1Nc1c(Cl)cccc1Cl [Diclofenac sodium] | 69.82% ± 0.04
N#C[C@@H]1C[C@@H]2C[C@@H]2N1C(=O)[C@@H](N)C12CC3CC(CC(O)(C3)C1)C2 [Saxagliptin hydrochloride] | 114.45% ± 0.02
CC(=O)Nc1ccc(O)cc1 [Acetaminophen] | 90.08% ± 0.04
CN1CCN2c3ncccc3Cc3ccccc3C2C1 (centres unmarked) [Mirtazapine] | 50.53% ±0.001
CC(C(=O)O)c1ccc(-c2ccccc2)c(F)c1 (centres unmarked) [Flurbiprofen] | 59.91% ± 0.03
C[C@]12CCC(=O)C=C1CC[C@@H]1[C@@H]2[C@@H](O)C[C@@]2(C)[C@H]1CC[C@]2(O)C(=O)CO [Hydrocortisone] | 70.48% ± 0.08
CN1CCOC(c2ccccc2)c2ccccc2C1 (centres unmarked) [Nefopam hydrochloride] | 52.87% ± 0.15
COc1ccc2c(c1)c(CC(=O)O)c(C)n2C(=O)c1ccc(Cl)cc1 [Indomethacin] | 60.51% ± 0.004
COc1ccc2cccc(CCNC(C)=O)c2c1 [Agomelatine] | 36.20% ± 0.08
CN1C(C(=O)Nc2ccccn2)=C(O)c2sc(Cl)cc2S1(=O)=O [Lornoxicam] | 65.67% ± 0.04
CN(C)CCCC1(c2ccc(F)cc2)OCc2cc(C#N)ccc21 (centres unmarked) [Citalopram] | 59.29% ± 0.07
COCCc1ccc(OCC(O)CNC(C)C)cc1 (centres unmarked) [Metoprolol Tartrate] | 59.44% ± 0.08
CCC(=O)NS(=O)(=O)c1ccc(-c2c(-c3ccccc3)noc2C)cc1 [Parecoxib] | 72.34% ± 0.11
CC(C(=O)O)c1ccc(CC2CCCC2=O)cc1 (centres unmarked) [Loxoprofen] | 57.60% ± 0.04
COc1ccc(Cl)cc1C(=O)NCCc1ccc(S(=O)(=O)NC(=O)NC2CCCCC2)cc1 [Glybenzcyclamide] | 78.13% ± 0.03
Cc1cnc(NC(=O)C2=C(O)c3ccccc3S(=O)(=O)N2C)s1 [Meloxicam sodium] | 61.62% ± 0.06
CN(CCOc1ccc(CC2SC(=O)NC2=O)cc1)c1ccccn1 (centres unmarked) [Rosiglitazone maleate] | 64.26% ± 0.004
CN/C(=N/CCSCc1nc[nH]c1C)NC#N [Cimetidine] | 84.61% ± 0.03
CCC1=C(C)CN(C(=O)NCCc2ccc(S(=O)(=O)NC(=O)N[C@H]3CC[C@H](C)CC3)cc2)C1=O [Glimepiride] | 100.17% ± 0.01
CN(C)CCCN1c2ccccc2CCc2ccc(Cl)cc21 [Clomipramine] | 54.39% ± 0.08

Molecule | Relative activity (% of control)
CN1[C@@H]2CC[C@H]1C[C@@H](OC(=O)c1c[nH]c3ccccc13)C2 [Tropisetron] | 84.28% ± 0.07
COc1ccc2c(c1)[C@]13CCCC[C@@H]1[C@H](C2)N(C)CC3 [Dextromethorphan hydrobromide] | 79.28% ± 0.03
Cc1ccc(Sc2ccccc2N2CCNCC2)c(C)c1 [Vortioxetine] | 11.14% ±0.001
COc1ccc2[nH]c([S+]([O-])Cc3ncc(C)c(OC)c3C)nc2c1 (centres unmarked) [Omeprazole] | 46.24% ±0.04
CC(C)[C@H]1CC[C@H](C(=O)N[C@H](Cc2ccccc2)C(=O)O)CC1 [Nateglinide] | 108.55% ± 0.06
CN(C)CCOC(c1ccccc1)c1ccccc1 [Diphenhydramine hydrochloride] | 90.45% ± 0.11
C[C@@H]1C[C@H]2[C@@H]3CCC4=CC(=O)C=C[C@]4(C)[C@@]3(F)[C@@H](O)C[C@]2(C)[C@@]1(O)C(=O)CO [Dexamethasone] | 59.84% ± 0.07
O=c1ccc2ccc(OCCCCN3CCN(c4cccc5sccc45)CC3)cc2[nH]1 [Brexpiprazole] | 29.48% ± 0.05
COc1ccc(C(CN(C)C)C2(O)CCCCC2)cc1 (centres unmarked) [Venlafaxine] | 54.22% ± 0.004
Cc1ccc(-c2cc(C(F)(F)F)nn2-c2ccc(S(N)(=O)=O)cc2)cc1 [Celecoxib] | 33.72% ± 0.13
CCCCc1oc2ccc(NS(C)(=O)=O)cc2c1C(=O)c1ccc(OCCCN(CCCC)CCCC)cc1 [Dronedarone hydrochloride] | 20.07% ± 0.02
CNCCC(Oc1ccc(C(F)(F)F)cc1)c1ccccc1 (centres unmarked) [Fluoxetine] | 18.63% ±0.04
Cc1cnc(C(=O)NCCc2ccc(S(=O)(=O)NC(=O)NC3CCCCC3)cc2)cn1 [Glipizide] | 106.96% ± 0.06
Cc1nc2n(c(=O)c1CCN1CCC(c3noc4cc(F)ccc34)CC1)CCCC2O (centres unmarked) [Paliperidone] | 101.95% ± 0.03
CN[C@H]1CC[C@@H](c2ccc(Cl)c(Cl)c2)c2ccccc21 [Sertraline] | 29.92% ± 0.05
CC(NC(C)(C)C)C(=O)c1cccc(Cl)c1 (centres unmarked) [Bupropion] | 30.23% ± 0.06
CN(C)CCC=C1c2ccccc2CCc2ccccc21 [Amitriptyline] | 38.88% ± 0.04
C=C[C@H]1C[N@@]2CC[C@H]1C[C@@H]2[C@@H](O)c1ccnc2ccc(OC)cc12 [Quinidine] | 60.50% ± 0.14
CN(C)C(=N)N=C(N)N [Metformin hydrochloride] | 109.07% ± 0.01
Cc1c(OCC(F)(F)F)ccnc1C[S+]([O-])c1nc2ccccc2[nH]1 (centres unmarked) [Lansoprazole] | 27.68% ± 0.01

test system: not given; assay: not given; parameters: method as in Puszkiel et al., 2019; Balakirouchenane et al., 2021; details: ref Puszkiel et al., 2019; Balakirouchenane et al., 2021; cited from earlier work

Molecule | increase of dabrafenib Cmax on ketoconazole coadministration | increase of dabrafenib area under curve (AUC) on ketoconazole coadministration
CC(=O)N1CCN(c2ccc(OCC3COC(Cn4ccnc4)(c4ccc(Cl)cc4Cl)O3)cc2)CC1 (centres unmarked) [ketoconazole] | 33% | 71%
